Test results published in US12268666B2, “Spray-dried dispersions, formulations, and polymorphs of (S)-5-amino-3-(4-((5-fluoro-2-methoxybenzamido)methyl)phenyl)-1-(1,1,1-trifluoropropan-2-yl)-1H-pyrazole-4-carboxamide” (Loxo Oncology, Inc., priority 2018, dated 2025).
“Also recorded” adds a separate entry of the source.

Columns and labels:
TMD8 cells = assay: BTK-dependent proliferation of TMD8 diffuse large B-cell lymphoma cell line; type: cell-based; conditions: Homo sapiens, from AUC of real-time confluence curves, 0.1 to 1,000 nM
Protocol: The TMD8 cells are maintained in RPMI 1640 (Gibco Catalog #31870-025) with 10% Fetal Calf Serum (FCS), 1% GLUTAMAX™, Non-Essential Amino-Acids and 1 mM sodium pyruvate. The cells are harvested by centrifugation (5 min, 1200 rpm) prior to reaching a concentration of 3×10^6 cells/mL. The medium is removed and cell pellet resuspended in fresh medium before counting with a Cellometer (Nexcelom). TMD8 cells are seeded at 5×10^4 cells/mL in 20 mL of culture medium in a T75 culture flask and held at 37° C. with 5% CO2.
The anti-proliferation activity of the compound of Formula I with TMD8 cells is accessed by the addition of increasing concentrations of inhibitor from 0.1 to 1,000 nM. A dose-dependent inhibition is observed by real-time assessment of TMD8 confluence. Individual curves for each compound of Formula I concentration are represented in the FIG. 12A.

BTK = target: T1, BTK (Homo sapiens, UniProt Q06187); assay: BTK Y223 autophosphorylation in Ramos RA1 cells; type: cell-based; conditions: anti-human IgM stimulation
T1 construct: host or cells: Ramos RA1
Protocol: Ramos RA1 cells, obtained from ATCC (CRL-1596), are grown in RPMI 1640+10% fetal bovine serum (FBS) at 37° C. in a CO2 incubator. […] Nine hundred μL of cell/well are added to 24 well plates and 100 uL of 10× stocks of inhibitor are added. The 10× compound of Formula I stocks are prepared in 1% DMSO, by doing a 1:3 dilution series with final concentrations in the wells ranging between 900 nM to 0.41 nM. […] All samples are tested in triplicate. After 2 hours (starvation and dosing) sodium orthovanadate is added to a final concentration of 200 μM and incubated for 30 more min. Cells are then stimulated with 4 uL of goat F(ab′)2 anti-human IgM (Jackson ImmunoResearch #109-006-129) for 5 min at room temperature, spun down, resuspended in 100 uL of […]™ M (Sigma #C2978) containing 5× Halt phosphatase and protease inhibitor cocktails (Pierce #78442), and stored at −80° C. Lysates are quantified by BCA (Pierce #23225) and analyzed by Simple Western (Protein Simple) with the following antibodies: anti-phospho-BTK (Y223) (Cell Signaling Technologies (CST) #5082), anti-BTK (CST #8547), anti-phospho-PLCγ2 (Y1217) (CST 3871), anti-PLCγ2 (CST 3872), and anti-GAPDH (GAPDH refers to glyceraldehyde 3-phosphate dehydrogenase) (Novus #MAB5718-SP). […] Results are analyzed with Compass software (Protein Simple), and IC50 values are calculated on GraphPad Prism 7.04 software.

[1] = Solubility screening in lipid vehicles; type: physicochemical
Protocol: The solubility of the compound of Formula I in lipid vehicles is also examined. The compound of Formula I Form A is added into a clear, 20 mL glass vials followed by the corresponding excipients, e.g., MIGLYOL® 812 (saturated coconut and palmkernel oil-derived caprylic and capric fatty acids and glycerin, e.g., C8 and C10 triglycerides), CAPMUL® MCM EP (glyceryl monocaprylocaprate type I (EP)), PECEOL™ (glycerol monooleates (type 40) EP, glyceryl monooleate (type 40) NF), LABRAFIL® M2125CS (linoleoyl polyoxyl-6 glycerides), LAUROGLYCOL™ FCC (propylene glycol monolaurate (type I)), Span® 80 (sorbitane monooleate), PHOSAL® 53 MCT (lecithin in caprylic/capric triglycerides, alcohol, glyceryl stearate, oleic acid, and ascorbyl palmitate), or capmul PG-8 (propylene glycol monocaprylate). The samples are then homogenized with a handheld homogenizer for 10 minutes until the compound of Formula I is visibly dissolved. […] A set of matching control formulations are also prepared.

T1 sequence (Q06187 whole entry): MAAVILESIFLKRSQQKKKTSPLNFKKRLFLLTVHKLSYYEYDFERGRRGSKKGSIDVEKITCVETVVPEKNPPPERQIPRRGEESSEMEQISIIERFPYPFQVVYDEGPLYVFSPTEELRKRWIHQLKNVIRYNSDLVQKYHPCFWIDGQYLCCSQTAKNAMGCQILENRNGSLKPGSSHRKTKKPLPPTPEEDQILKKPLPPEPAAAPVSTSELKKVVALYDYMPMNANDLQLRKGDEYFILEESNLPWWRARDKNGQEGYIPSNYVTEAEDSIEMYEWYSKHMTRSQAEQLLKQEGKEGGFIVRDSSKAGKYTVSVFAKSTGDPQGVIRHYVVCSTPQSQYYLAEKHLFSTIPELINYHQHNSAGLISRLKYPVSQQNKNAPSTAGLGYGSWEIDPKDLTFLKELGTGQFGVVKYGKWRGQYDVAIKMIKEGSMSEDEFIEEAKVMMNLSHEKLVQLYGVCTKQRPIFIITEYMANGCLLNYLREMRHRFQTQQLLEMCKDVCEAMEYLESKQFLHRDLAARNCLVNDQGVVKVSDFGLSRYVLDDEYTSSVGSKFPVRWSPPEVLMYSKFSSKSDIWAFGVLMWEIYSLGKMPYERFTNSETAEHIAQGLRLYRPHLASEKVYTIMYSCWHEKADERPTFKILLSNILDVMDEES

## COc1ccc(F)cc1C(=O)NCc1ccc(-c2nn([C@@H](C)C(F)(F)F)c(N)c2C(N)=O)cc1 [compound of Formula I, (S)-5-amino-3-(4-((5-fluoro-2-methoxybenzamido)methyl)phenyl)-1-(1,1,1-trifluoropropan-2-yl)-1H-pyrazole-4-carboxamide]
TMD8 cells
  IC50: 2.33 nM
BTK
  IC50: 3.2 ± 0.6 nM
[1]; CAPMUL ® MCM EP, 40 °C
  HPLC Solubility: 33.3 mg API per g mixture
[1]; Capmul PG-8, 25 °C
  HPLC Solubility: 30.3 mg API per g mixture
[1]; Glycerine, 25 °C
  HPLC Solubility: 0.5 mg API per g mixture
[1]; KOLLIPHOR ® EL, 25 °C
  HPLC Solubility: 46.2 mg API per g mixture
[1]; LABRAFIL ® M2125CS, 25 °C
  HPLC Solubility: 3.2 mg API per g mixture
[1]; LABRASOL ® ALF, 25 °C
  HPLC Solubility: 104.1 mg API per g mixture
[1]; LAUROGLYCOL ™ FCC, 25 °C
  HPLC Solubility: 5.1 mg API per g mixture
[1]; Long chain triglycerides/long chain lipid digestion products, 25 °C
  HPLC Solubility: 0.02 mg API per g mixture
[1]; MIGLYOL ® 812, 25 °C
  HPLC Solubility: 0.62 mg API per g mixture
[1]; Medium chain triglycerides/medium chain lipid digestion products, 25 °C
  HPLC Solubility: 0.02 mg API per g mixture
[1]; Oleic acid, 25 °C
  HPLC Solubility: 1.2 mg API per g mixture
[1]; PECEOL ™, 40 °C
  HPLC Solubility: 6.6 mg API per g mixture
[1]; PEG-400 (Macrogol 400), 25 °C
  HPLC Solubility: 168.9 mg API per g mixture
[1]; PHOSAL ® 53 MCT, 25 °C
  HPLC Solubility: 11.3 mg API per g mixture
[1]; Polysorbate 80/Tween-80, 25 °C
  HPLC Solubility: 43.6 mg API per g mixture
[1]; Propylene glycol, 25 °C
  HPLC Solubility: 29.4 mg API per g mixture
[1]; SPAN ® 80, 25 °C
  HPLC Solubility: 6.2 mg API per g mixture
[1]; Sesame oil, 25 °C
  HPLC Solubility: 0.07 mg API per g mixture
[1]; Vitamin E-TPGS NF, 40 °C
  HPLC Solubility: 43.1 mg API per g mixture
[1]; excipient screen for lipid-based formulations
  excipients in which solubility is best: best in PEG 400, LABRASOL® ALF (e.g., caprylocaproyl polyoxyl-8 glycerides), KOLLIPHOR® EL (e.g., polyoxyl castor oil), Tween 80, and Vitamin E TPGS; also recorded: most soluble in LABRASOL® ALF and PEG-400
